Where “and” joins values, the source holds several entries; their conditions need not be identical. Identical values can stand only once. Toxic doses and inconclusive results are not listed.
Tested on: CD2F1 mice, L1210 leukemia ip, survival T/C
Assay: NCI In Vivo Anticancer Drug Screen. Data for tumor model L1210 Leukemia (intraperitoneal) in CD2F1 (CDF1) mice
Conditions: higher = longer survival
Procedure, shortened: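 Ratio T/C, where T is the treated-group value and C the vehicle-dosed control value, from mice implanted with a transplantable tumor.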

[1] = endpoint: mean survival time, dose: 50.0 mg/kg/injection, schedule: Q01DX009 (ip), vehicle: saline with Tween-80

**Q.** For `CCC1CCC(NC(=O)NC)CC1` (stereo unspecified), which T/C (endpoint: mean survival time, dose: 100.0 mg/kg/injection, schedule: Q04DX003 (ip), vehicle: saline with Tween-80) is on record?
**A.** 99 % of control

**Q.** And the T/C (endpoint: mean survival time, dose: 200.0 mg/kg/injection, schedule: Q04DX003 (ip), vehicle: saline with Tween-80)?
**A.** 92 % of control

**Q.** Which results are given for `O=CC(O)C(O)C(O)C(O)C(=O)O.[NH-]C1CCCCC1[NH-].[Pt+2]` (stereo unspecified)?
**A.** T/C (endpoint: mean survival time, dose: 0.78 mg/kg/injection, schedule: Q01DX005 (ip), vehicle: saline): 156 % of control; T/C (endpoint: mean survival time, dose: 1.56 mg/kg/injection, schedule: Q01DX005 (ip), vehicle: saline): 203 % of control; T/C (endpoint: mean survival time, dose: 1.56 mg/kg/injection, schedule: Q01DX009 (ip), vehicle: saline): 160 % of control; T/C (endpoint: mean survival time, dose: 3.12 mg/kg/injection, schedule: Q01DX005 (ip), vehicle: saline): 266 % of control; T/C (endpoint: mean survival time, dose: 3.12 mg/kg/injection, schedule: Q04DX003 (ip), vehicle: saline): 150 % of control; T/C (endpoint: mean survival time, dose: 3.13 mg/kg/injection, schedule: Q01DX009 (ip), vehicle: saline): 200 % of control; T/C (endpoint: mean survival time, dose: 6.25 mg/kg/injection, schedule: Q01DX005 (ip), vehicle: saline): 300 % of control; T/C (endpoint: mean survival time, dose: 6.25 mg/kg/injection, schedule: Q01DX009 (ip), vehicle: saline): 167 % of control; T/C (endpoint: mean survival time, dose: 6.25 mg/kg/injection, schedule: Q04DX003 (ip), vehicle: saline): 280 % of control; T/C (endpoint: mean survival time, dose: 12.5 mg/kg/injection, schedule: Q01DX005 (ip), vehicle: saline): 103 % of control; T/C (endpoint: mean survival time, dose: 12.5 mg/kg/injection, schedule: Q04DX003 (ip), vehicle: saline): 301 % of control; T/C (endpoint: mean survival time, dose: 25.0 mg/kg/injection, schedule: Q04DX003 (ip), vehicle: saline): 231 % of control and 259 % of control; T/C (endpoint: mean survival time, dose: 50.0 mg/kg/injection, schedule: Q04DX003 (ip), vehicle: saline): 108 % of control; T/C (endpoint: median survival time, dose: 1.02 mg/kg/injection, schedule: Q01DX009 (ip), vehicle: saline): 160 % of control and 170 % of control; T/C (endpoint: median survival time, dose: 1.37 mg/kg/injection, schedule: Q01DX009 (ip), vehicle: saline): 170 % of control and 180 % of control; T/C (endpoint: median survival time, dose: 1.56 mg/kg/injection, schedule: Q01DX009 (ip), vehicle: saline): 236 % of control; T/C (endpoint: median survival time, dose: 2.09 mg/kg/injection, schedule: Q01DX009 (ip), vehicle: saline): 189 % of control and 714 % of control; T/C (endpoint: median survival time, dose: 3.12 mg/kg/injection, schedule: Q01DX009 (ip), vehicle: saline): 188 % of control and 253 % of control and 261 % of control; T/C (endpoint: median survival time, dose: 6.25 mg/kg/injection, schedule: Q01DX009 (ip), vehicle: saline): 119 % of control; T/C (endpoint: median survival time, dose: 6.25 mg/kg/injection, schedule: Q04DX003 (ip), vehicle: saline): 101 % of control; T/C (endpoint: median survival time, dose: 12.5 mg/kg/injection, schedule: Q01DX009 (ip), vehicle: saline): 90 % of control; T/C (endpoint: median survival time, dose: 12.5 mg/kg/injection, schedule: Q04DX003 (ip), vehicle: saline): 100 % of control; T/C (endpoint: median survival time, dose: 12.5 mg/kg/injection, schedule: Q04DX003 (iv), vehicle: saline): 123 % of control; T/C (endpoint: median survival time, dose: 25.0 mg/kg/injection, schedule: Q04DX003 (ip), vehicle: saline): 103 % of control; T/C (endpoint: median survival time, dose: 50.0 mg/kg/injection, schedule: Q04DX003 (iv), vehicle: saline): 365 % of control; T/C (endpoint: median survival time, dose: 100.0 mg/kg/injection, schedule: Q04DX003 (ip), vehicle: saline): 113 % of control

**Q.** What does the source list for `O=c1[nH]c(=O)c2ccccc2o1`?
**A.** T/C (endpoint: mean survival time, dose: 12.5 mg/kg/injection, schedule: Q01DX009 (ip), vehicle: saline with Tween-80): 101 % of control; T/C (endpoint: mean survival time, dose: 25.0 mg/kg/injection, schedule: Q01DX009 (ip), vehicle: saline with Tween-80): 101 % of control; T/C [1]: 98 % of control

**Q.** Which results are given for `O=C1C2C3C=CC(C3)C2C(=O)N1O` (stereo unspecified)?
**A.** T/C (endpoint: mean survival time, dose: 50.0 mg/kg/injection, schedule: Q01DX001 (ip), vehicle: carboxymethylcellulose (CMC)): 106 % of control; T/C (endpoint: mean survival time, dose: 100.0 mg/kg/injection, schedule: Q01DX001 (ip), vehicle: carboxymethylcellulose (CMC)): 100 % of control; T/C (endpoint: mean survival time, dose: 200.0 mg/kg/injection, schedule: Q01DX001 (ip), vehicle: carboxymethylcellulose (CMC)): 112 % of control; T/C (endpoint: mean survival time, dose: 400.0 mg/kg/injection, schedule: Q01DX001 (ip), vehicle: carboxymethylcellulose (CMC)): 96 % of control

**Q.** For `COc1cc(Cl)ccc1NC(=O)Oc1ccc(Br)cc1`, which T/C [1] is on record?
**A.** 92 % of control

**Q.** What about the T/C (endpoint: mean survival time, dose: 100.0 mg/kg/injection, schedule: Q01DX009 (ip), vehicle: saline with Tween-80) of the same molecule?
**A.** 96 % of control

**Q.** What about the T/C (endpoint: mean survival time, dose: 200.0 mg/kg/injection, schedule: Q01DX009 (ip), vehicle: saline with Tween-80) of the same molecule?
**A.** 87 % of control

**Q.** Which T/C (endpoint: mean survival time, dose: 75.0 mg/kg/injection, schedule: Q01DX001 (ip), vehicle: saline) does the source give for `Cc1cc2nc(N)n(C3OC(CO)C(O)C3O)c2cc1C` (stereo unspecified) here?
**A.** 108 % of control

**Q.** What about the T/C (endpoint: mean survival time, dose: 150.0 mg/kg/injection, schedule: Q01DX001 (ip), vehicle: saline) of the same molecule?
**A.** 105 % of control

**Q.** And the T/C (endpoint: mean survival time, dose: 300.0 mg/kg/injection, schedule: Q01DX001 (ip), vehicle: saline)?
**A.** 103 % of control

From PubChem BioAssay AID256 (DTP/NCI, 2004)
